Reference: patent US20070232647A1, “Use of Ppar Agonists to Treat Ruminants” (priority 2004, published 2007)

Experiments:
Holstein cows = test: Average daily milk yield over sixty days after calving; assay type: in vivo; details: approximately 0.5 mg/kg SC on day of calving and day five post-calving, increased from 41.8 (placebo), p=0.052, FIG. 6
Method: One hundred twenty four pregnant, non-lactating Holstein cows were allocated to two treatment groups (placebo and COMPOUND (at approximately 0.5 mg/kg). In this Example COMPOUND is (3S)-3-[3-(1-Carboxy-1-methyl-ethoxy)-phenyl]-piperidine-1-carboxylic acid, 4-trifluoromethyl-benzyl ester. Animals were allowed to calve, treated by subcutaneous injection on the day of calving and on day five post-calving. Disease events and daily milk production were recorded for the following sixty days. The average daily milk yield in the treated cows was increased from 41.8 to 43.2 kg/day (p=0.052). Results are shown in FIG. 6.

mid-lactation cows = test: Serum glucose levels, Example 1: PK/PD of two PPAR alpha agonists given IV and SC; assay type: in vivo; details: 0.5 mg/kg IV or SC, regardless of route of administration; blood samples up to 72 hours; FIG. 1
Method: Both compounds were administered by IV and SC routes, as outlined in the table below.
All animals were bled one day prior, and 15 minutes prior, to compound administration. Blood samples were collected from animals treated via IV at 5 and 10 minutes post compound administration. Blood samples were collected from all animals at 0.5, 1, 2, 4, 6, 24, 30, 48, 54, and 72 hours post compound administration. Samples were analyzed for glucose concentrations using a Dade Behring Dimension RXL serum chemistry analyzer. […] Other commercially available, standard apparatus for testing glucose levels can also be used.

SMILES	average daily milk yield (Holstein cows)	glucose concentration relative to baseline values (mid-lactation cows)
CC(C)(Oc1cccc([C@@H]2CCCN(C(=O)OCc3ccc(C(F)(F)F)cc3)C2)c1)C(=O)O [Compound A, (3S)-3-[3-(1-Carboxy-1-methyl-ethoxy)-phenyl]-piperidine-1-carboxylic acid 4-trifluoromethyl-benzyl ester]	43.2 kg/day	
Cc1ccc(-c2ccc(NS(=O)(=O)c3ccc(C)c(C(=O)O)c3)cc2)cc1 [Compound X, 2-Methyl-5-(4′-methyl-biphenyl-4-ylsulfamoyl)-benzoic acid]		increase in glucose
